Consider five substances from patent US7803930B2, “Antisense modulation of apolipoprotein B-expression” (Isis Pharmaceuticals, Inc., priority 2002, dated 2010).

Series [1] deals with apolipoprotein B protein. Description: Apolipoprotein B protein secreted from primary human hepatocytes, ELISA. The series is classed as cell-based. As to conditions: 300 nM. Background: In an ELISA, binding on a coated surface is turned into a signal by an enzyme label.
The nature of series [2]: LDLr(-/-) mice dose response (Example 44): liver enzyme, cholesterol and triglyceride levels. The series is classed as in vivo, mouse. As to conditions: male and female LDLr(-/-) mice; 10, 25 or 50 mg/kg i.p. twice a week, six weeks. The method, then:
(§1) LDLr(−/−) mice, purchased from Taconic (Germantown, N.Y.) were used to evaluate antisense oligonucleotides for their potential to lower apolipoprotein B mRNA or protein levels, as well as phenotypic endpoints associated with apolipoprotein B. LDLr(−/−) mice were separated into groups of males and females. LDLr(−/−) mice were dosed intraperitoneally twice a week for six weeks with either 10, 25, or 50 mg/kg of ISIS 147764 (SEQ ID NO: 109) or ISIS 270906 (SEQ ID NO: 856) which is a 4 base mismatch of ISIS 147764, or with saline, or 20 mg/kg of Atorvastatin. At study termination animals were sacrificed and evaluated for several phenotypic markers.

Series [3] deals with apolipoprotein B mRNA. The experiment in a line: High fat fed mice, time-dependent effects and after cessation of dosing (Example 51): apolipoprotein B mRNA in liver. The series is classed as in vivo, mouse. As to conditions: high fat fed C57Bl/6 mice. As to the method:
In a further embodiment of the invention, the inhibition of apolipoprotein B mRNA in mice was compared to liver oligonucleotide concentration, total cholesterol, LDL-cholesterol and HDL-cholesterol. Male C57Bl/6 mice receiving a high fat diet (60% fat) were evaluated over the course of 6 weeks for the effects of treatment with twice weekly intraperitoneal injections of 50 mg/kg ISIS 147764 (SEQ ID NO: 109) or 50 mg/kg of the control oligonucleotide ISIS 141923 (SEQ ID NO: 858). Control animals received saline treatment. Animals were sacrificed after 2 days, 1, 2, 4 and 6 weeks of treatment. Each treatment group at each time point consisted of 8 mice.
Target expression in liver was measured by real-time PCR as described by other examples herein and is expressed as percent inhibition relative to saline treated mice. Total, LDL- and HDL-cholesterol levels were measured by routine clinical analysis using an Olympus Clinical Analyzer (Olympus America Inc., Melville, N.Y.) and are presented in mg/dL. Results from saline-treated animals are shown for comparison. Intact oligonucleotide in liver tissue was measured by capillary gel electrophoresis and is presented as micrograms of oligonucleotide per gram of tissue.
The oligonucleotide treatments described in this example were duplicated to investigate the extent to which effects of ISIS 147764 persist following cessation of treatment. Mice were treated as described, and sacrificed 1, 2, 4, 6 and 8 weeks following the cessation of oligonucleotide treatment.

Series [4] can be described thus: Lean vs high fat fed C57BL/6 mice (Example 20): cholesterol, lipoprotein, triglyceride, liver enzyme and serum glucose levels. The series is classed as in vivo, mouse. As to conditions: 50 mg/kg i.p. every three days, six weeks. The method, then:
Male C57BL/6 mice were divided into two matched groups; (1) wild-type control animals (lean animals) and (2) animals receiving a high fat diet (60% kcal fat). Control animals received saline treatment and were maintained on a normal rodent diet. After overnight fasting, mice from each group were dosed intraperitoneally every three days with saline or 50 mg/kg ISIS 147764 (SEQ ID No: 109) for six weeks. At study termination and forty eight hours after the final injections, animals were sacrificed and evaluated for target mRNA levels in liver, cholesterol and triglyceride levels, liver enzyme levels and serum glucose levels.

Series [5] relates to apolipoprotein B mRNA. The experiment in a line: LDLr(-/-) mice dose response (Example 44): apolipoprotein B mRNA. The series is classed as in vivo, mouse. As to conditions: male and female LDLr(-/-) mice; 10, 25 or 50 mg/kg i.p. twice a week, six weeks. As to the method:
as §1

Series [6] in a line: Transgenic mice dosing study (Example 52): serum total, LDL- and HDL-cholesterol. The series is classed as in vivo, mouse. As to the method: A long-term study of inhibition of human apolipoprotein B by ISIS 301012 in C57BL/6NTac-TgN(APOB100) mice (Taconic, Germantown, N.Y.) was conducted for a 3 month period. Mice were dosed intraperitoneally twice a week with 10 or 25 mg/kg ISIS 301012 (SEQ ID No: 247) for 12 weeks. Saline-injected animals served as controls. Each treatment group comprised 4 animals.
Results are presented as mg/dL in serum and represent the average of 4 animals. Results from the saline control animals are also shown.

Series [7] relates to human apolipoprotein B protein. Description: Transgenic mice (Example 47): serum human apolipoprotein B protein by ELISA. The series is classed as in vivo, human transgene in mouse. As to conditions: 25 mg/kg, relative to saline-treated animals. As to the method:
Serum samples were also collected at 2, 4, 6 and 8 weeks and were evaluated for human apolipoprotein B expression by using a human apolipoprotein B specific ELISA kit (ALerCHEK Inc., Portland, Me.). […] Treatment with ISIS 301012 reduced serum human apolipoprotein B protein by 70, 87, 81 and 41% at 2, 4, 6 and 8 weeks, respectively, relative to saline-treated control animals. Serum from transgenic mice was also subjected to immunoblot analysis using both human and mouse specific apolipoprotein B antibodies (US Biologicals, Swampscott, Mass. and Santa Cruz Biotechnology, Inc., Santa Cruz, Calif., respectively).

Setting [8] is: Lean-control group, C57BL/6 mice.
Where [9] appears, read: serum, 10 mg/kg i.p. twice a week, 2 weeks.
The mark [10] stands for this setting: serum, 10 mg/kg i.p. twice a week, 4 weeks.
Where [11] appears, read: serum, 10 mg/kg i.p. twice a week, 6 weeks.
The mark [12] stands for this setting: serum, 10 mg/kg i.p. twice a week, 8 weeks.
[13] abbreviates: serum, 10 mg/kg i.p. twice a week, Start.
The mark [14] stands for this setting: serum, 25 mg/kg i.p. twice a week, 2 weeks.
[15] abbreviates: serum, 25 mg/kg i.p. twice a week, 4 weeks.
The mark [16] stands for this setting: serum, 25 mg/kg i.p. twice a week, 6 weeks.
The mark [17] stands for this setting: serum, 25 mg/kg i.p. twice a week, 8 weeks.
Where [18] appears, read: serum, 25 mg/kg i.p. twice a week, Start.

In the oligonucleotide strings, read from the 5' end, every base follows the letter of its sugar. An asterisk marks phosphorothioate; unmarked linkages are phosphodiester. Other units and linkages are bracketed, terminal groups are in braces. A string of capitals states the bases alone. e = 2'-O-(2-methoxyethyl) (MOE); [5mC] = 5-methylcytosine; d = 2'-deoxy (DNA)

Regarding “113529 (antisense e[5mC]*eT*e[5mC]*eT*eT*dA*d[5mC]*dT*dG*dT*dG*d[5mC]*dT*dG*dT*eG*eG*eA*e[5mC]*eA) [compound 113529]”, the “% Change in apolipoprotein B protein secretion” value in series [1] (24 hours) is given as −2%; in series [1] (48 hours), −5%.
As to “301012 (eG*e[5mC]*e[5mC]*eT*e[5mC]*dA*dG*dT*d[5mC]*dT*dG*d[5mC]*dT*dT*d[5mC]*eG*e[5mC]*eA*e[5mC]*e[5mC]) [compound 301012]”, the entries for the “% Change in apolipoprotein B protein secretion” value in series [1] (24 hours) and in series [1] (48 hours) were −41% and −48%, respectively.
With “GTCCCTGAAGATGTCAATGC (2'-MOE gapmer, further chemistry not given here) [ISIS 147764]”, in series [2], the “cholesterol, triglycerides” value was “able to lower cholesterol, triglycerides, and mRNA levels in a dose-dependent manner”. Further, the “time of treatment within which inhibition of apolipoprotein B mRNA occurred” value in series [3] (50 mg/kg i.p. twice weekly) is given as no more than 2 days. Also, in series [3] (after 6 weeks of 50 mg/kg twice weekly), the “persistence of effects (mRNA inhibition, cholesterol lowering) after termination of treatment” value is recorded as “up to 8 weeks”. For the same substance, in series [4] (High Fat Group, C57BL/6 mice), the “Percent Change CHOL” value is given as −67%, the “Percent Change GLUC” value is −28%, the “Percent Change Lipoproteins HDL” value was −65% and the “Percent Change Lipoproteins LDL” value is −87%. Besides, in series [4] (setting [8]), the “Percent Change CHOL” value was −63%, the “Percent Change Lipoproteins HDL” value is −44%, the “Percent Change Lipoproteins LDL” value was −64% and the “Percent Change TRIG” value is −34%. For the same substance, in series [4] (lean and high fat C57BL/6 mice), the “changes in liver enzyme levels” value is “No significant changes”. In series [5], the mRNA levels entry is “able to lower cholesterol, triglycerides, and mRNA levels in a dose-dependent manner”. The LDL-cholesterol entry in series [6] (10 or 25 mg/kg, first 4 weeks of treatment) is given as “lowered”.
In the case of “ISIS 281625: SEQ ID NO: 224, 2′-MOE gapmer targeted to human apolipoprotein B (antisense eA*eG*eG*eT*eT*dA*d[5mC]*d[5mC]*dA*dG*d[5mC]*d[5mC]*dA*d[5mC]*dA*eT*eG*e[5mC]*eA*eG)”, the “reduction of serum human apolipoprotein B protein (ELISA)” value in series [7] (2 weeks) amounted to 31%; in series [7] (4 weeks), 26%; in series [7] (6 weeks) it was 11%; in series [7] (8 weeks), 26%.
On to “ISIS 301012: SEQ ID NO: 247, antisense oligonucleotide targeted to human apolipoprotein B (antisense GCCTCAGTCTGCTTCGCACC; chemistry not given here)”, for which the “reduction of serum human apolipoprotein B protein (ELISA)” value is reported as 70% in series [7] (2 weeks), 87% in series [7] (4 weeks), 81% in series [7] (6 weeks) and 41% in series [7] (8 weeks). In addition, the HDL-cholesterol in series [6] (setting [9]) turned out to be 69 mg/dL; in series [6] (setting [10]), 78 mg/dL; in series [6] (setting [11]) it was 72 mg/dL; in series [6] (setting [12]) it was 79 mg/dL; in series [6] (setting [13]), 70 mg/dL; in series [6] (setting [14]), 73 mg/dL. Further, the HDL-cholesterol in series [6] (setting [15]) worked out at 76 mg/dL; in series [6] (setting [16]), 80 mg/dL; in series [6] (setting [17]) it was 91 mg/dL; in series [6] (setting [18]), 64 mg/dL. In addition, the LDL-cholesterol in series [6] (setting [9]) is recorded as 20 mg/dL; in series [6] (setting [10]), 23 mg/dL; in series [6] (setting [11]), 37 mg/dL; in series [6] (setting [12]), 33 mg/dL; in series [6] (setting [13]) it was 35 mg/dL; in series [6] (setting [14]) it was 19 mg/dL. The LDL-cholesterol in series [6] (setting [15]) amounted to 19 mg/dL; in series [6] (setting [16]), 37 mg/dL; in series [6] (setting [17]), 44 mg/dL; in series [6] (setting [18]), 33 mg/dL. The Total cholesterol is 97 mg/dL in series [6] (setting [9]); 111 mg/dL in series [6] (setting [10]); 120 mg/dL in series [6] (setting [11]); 122 mg/dL in series [6] (setting [12]); 115 mg/dL in series [6] (setting [13]); 101 mg/dL in series [6] (setting [14]). The Total cholesterol in series [6] (setting [15]) is 107 mg/dL; in series [6] (setting [16]) it was 124 mg/dL; in series [6] (setting [17]) it was 147 mg/dL; in series [6] (setting [18]), 107 mg/dL.
